Experimental data published in patent US20210078917A1, “FUNGICIDAL FERTILIZER COMPOSITION COMPRISING POTASSIUM PHOSPHITE AND GAMMA-POLY-GLUTAMIC ACID” (JIANGSU HUIFENG BIO AGRICULTURE CO., LTD., priority 2018, published 2021).

Legend:
potatoes = experiment: Yield increase test of potatoes (field); format: in vivo, potato; conditions: amount 7000 g active ingredient/mu, base fertilizer
Procedure: (§1) (1) Yield increase and disease control test of potatoes with fungicidal fertilizer composition of the present invention. This test was conducted in 2017 in Anding District, Dingxi City, Gansu Province. This area is a typical semi-arid rain-fed agricultural area. The soil type is loessial soil, with deep soil layers and uniform soil fertility. The previous crop is rape. The fertilizer of the present invention was totally applied as a base fertilizer at a time. […] Ridging after flat planting in wide and narrow rows was adopted. The wide row spacing was 60 cm, the narrow row spacing was 30 cm, the plant spacing was 30 cm, the sowing depth was 15 cm, and the plant density was 58,000 plants·hm^−2. Other field management was the same as that in large area of field. The number of large- and medium-sized potatoes ([…]) per plant was randomly determined, and the relative increase rate of large- and medium-sized potatoes was determined. The yield per mu and the relative increase rate of yield were determined. The crude starch content and increase rate of crude starch content were determined. The control effect on root rot of potatoes was also determined.

root rot of potatoes = experiment: Disease control test of potatoes (field), root rot; format: in vivo, potato; conditions: amount 7000 g active ingredient/mu
Procedure: as §1

soybean = experiment: Yield increase test of soybean; format: in vivo; conditions: 4000 g effective ingredient per mu
Procedure: (§2) Fertilization method: The fertilizer was co-applied with other fertilizers. The yield, quality and control effect on disease on soybean were determined.

[1] = system: root rot, a soil-borne disease of soybeans; experiment: Disease control test of soybean, root rot; format: in vivo; conditions: 4000 g effective ingredient per mu
Procedure: as §2

Chinese wolfberry = experiment: Yield increase and quality test of Chinese wolfberry; format: in vivo, Chinese wolfberry "Ningqi No. 7"; conditions: 1.2 kg active ingredient per mu
Procedure: The test was carried out in a Chinese wolfberry planting test plot in Koluke Town, Delingha City, Qinghai Province. Chinese wolfberry plants were all three-year-old seedlings of variety “Ningqi No. 7” at a density of 270 plants/667 m^2. This experiment was designed such that different plots were arranged in order. […]. Fertilization method: It was applied together with other base fertilizers, by laying the fertilizer at the bottom of the planting pit, where the depth of the trench was 70 cm, the diameter of the pit was 80 cm, and the soil was mixed in and applied at the bottom when applying fertilizer. The yield, quality and control effect on disease on fresh Chinese wolfberry fruit were determined.

Disease (black fruit) = experiment: Disease control test of Chinese wolfberry, black fruit; format: in vivo, Chinese wolfberry "Ningqi No. 7"; conditions: 1.2 kg active ingredient per mu
Procedure: The test was carried out in a Chinese wolfberry planting test plot in Koluke Town, Delingha City, Qinghai Province. Chinese wolfberry plants were all three-year-old seedlings of variety “Ningqi No. 7” at a density of 270 plants/667 m^2. This experiment was designed such that different plots were arranged in order. […] Fertilization method: It was applied together with other base fertilizers, by laying the fertilizer at the bottom of the planting pit, where the depth of the trench was 70 cm, the diameter of the pit was 80 cm, and the soil was mixed in and applied at the bottom when applying fertilizer. The yield, quality and control effect on disease on fresh Chinese wolfberry fruit were determined.

peanut = experiment: Yield increase and quality test of peanut; format: in vivo; conditions: 800 g per mu, sprayed three times during flowering and fruiting period
Procedure: (§3) […]. Fertilization method: The fertilizer was applied three times by spraying during the flowering and fruiting period. The yield, quality and control effect on disease on peanut were determined.

stem rot of peanut = experiment: Disease control test of peanut, stem rot; format: in vivo; conditions: 800 g per mu
Procedure: as §3

pepper = experiment: Yield increase and quality test of pepper; format: in vivo; conditions: 400 g per mu, sprayed during the seedling stage
Procedure: (§4) This fertilizer was applied on the basis of conventional fertilization in each treatment area. Fertilization method: The fertilizer was applied by spraying during the seedling stage of pepper. The yield, quality and control effect on disease on pepper were determined.

Disease (blight) = experiment: Disease control test of pepper, blight; format: in vivo; conditions: 400 g per mu
Procedure: as §4

tomato = experiment: Yield increase and quality test of tomato; format: in vivo; conditions: 600 g per mu, sprayed during the seedling stage
Procedure: […]. This fertilizer was applied on the basis of conventional fertilization in each treatment area. Fertilization method: The fertilizer was applied by spraying during the seedling stage of tomato. The yield, quality and control effect on disease on tomato were determined.

Disease (rot) = experiment: Disease control test of tomato, rot; format: in vivo; conditions: 600 g per mu
Procedure: This fertilizer was applied on the basis of conventional fertilization in each treatment area. Fertilization method: The fertilizer was applied by spraying during the seedling stage of tomato. The yield, quality and control effect on disease on tomato were determined.

Potassium phosphite
Crude starch content (potatoes): 16.8% | Fresh weight of large- and medium-sized potatoes (potatoes): 518.8 g/plant | Increase rate of crude starch content (potatoes): 6.3% | Increase rate of large- and medium-sized potatoes (potatoes): 14.8% | Increase rate of yield (potatoes): 12.4% | Yield (potatoes): 1446 kg/mu | Control effect (root rot of potatoes; 10 days after application): 57.59% | Disease index of root rot (root rot of potatoes; 10 days after application): 11.56 | Control effect (root rot of potatoes; 30 days after application): 32.47% | Disease index of root rot (root rot of potatoes; 30 days after application): 26.19 | Branches (soybean): 18.5 count | Increase rate (branches) (soybean): 6.8% | Increase rate (weight per 100 grains) (soybean): 7.1% | Increase rate (yield) (soybean): 11.4% | Weight per 100 grains (soybean): 26.50 g | Yield (667 M^2) (soybean; per 667 M^2): 196.7 | Control effect ([1]; 12 days after application): 75.42% | Disease index of root rot ([1]; 12 days after application): 4.73 | Control effect ([1]; 35 days after application): 36.78% | Disease index of root rot ([1]; 35 days after application): 19.93 | Quality: Polysaccharide (Chinese wolfberry): 8.63% | Quality: Total amino acid content (Chinese wolfberry): 7.41% | Yield of fresh Chinese wolfberry fruit: Weight per 100 fruits (Chinese wolfberry): 126.8 g | Yield of fresh Chinese wolfberry fruit: Yield (Chinese wolfberry): 2703.5 kg/mu | Disease (black fruit): Control effect (Disease (black fruit); 10 days after application): 66.51% | Disease (black fruit): Disease index (Disease (black fruit); 10 days after application): 5.13 | Disease (black fruit): Control effect (Disease (black fruit); 30 days after application): 45.24% | Disease (black fruit): Disease index (Disease (black fruit); 30 days after application): 15.67 | Quality: Linoleic acid (peanut): 44.61% | Quality: Protein (peanut): 23.08% | Yield (peanut): 335.7 kg/mu | Yield: Seed yield (peanut): 70.3% | Yield: Weight per 100 fruits (peanut): 122.3 g | Disease (Stem rot): Control effect (stem rot of peanut; 10 days after application): 78.64% | Disease (Stem rot): Disease index (stem rot of peanut; 10 days after application): 3.28 | Disease (Stem rot): Control effect (stem rot of peanut; 30 days after application): 39.36% | Disease (Stem rot): Disease index (stem rot of peanut; 30 days after application): 9.31 | Quality: Vitamin C (pepper): 24.4 mg/100 g | Yield: Total yield (pepper): 3462 kg/mu | Yield: Weight of single fruit (pepper): 51.8 g | Disease (blight): Control effect (Disease (blight); 10 days after application): 71.36% | Disease (blight): Disease index (Disease (blight); 10 days after application): 3.00 | Disease (blight): Control effect (Disease (blight); 42 days after application): 31.52% | Disease (blight): Disease index (Disease (blight); 42 days after application): 12.43 | Quality: Amino acid (tomato): 695.31 mg/100 kg | Quality: Vitamin C (tomato): 15.69 mg/100 g | Yield: Total yield (tomato): 3626 kg/mu | Yield: Weight of single fruit (tomato): 22.6 g | Disease (rot): Control effect (Disease (rot); 12 days after application): 62.42% | Disease (rot): Disease index (Disease (rot); 12 days after application): 5.95 | Disease (rot): Control effect (Disease (rot); 45 days after application): 34.52% | Disease (rot): Disease index (Disease (rot); 45 days after application): 16.16
